Assay results published in patent publication US5010076A, “1,7-fused 1H-indole-2-carboxylic acid-N-(1,4-benzodiazepin-3-yl)amides” (Kali-Chemie Pharma GmbH, priority 1989, dated 1991).

Tests used:
[1] = target: T1, peripheral CCK receptors (pancreas) (Rattus norvegicus, UniProt P30551); experiment: peripheral CCK receptor binding affinity on rat pancreas homogenate (inhibition of 3[H]-CCK-8 binding); parameters: species or system rat (male Wistar); details: 0.3 nM 3[H]-CCK-8, 90 min, 25° C., pH 7.4, calculated from IC50 by Cheng-Prusoff, read-out: In vitro binding to peripheral CCK receptors (pancreas) pKi values (converted)
T1 construct: Whole pancreas glands from male Wistar rats with a body weight of 150-300 g; from tissue; host or cells: whole pancreas glands of male Wistar rats, washed homogenate
T1 sequence (P30551 1-444): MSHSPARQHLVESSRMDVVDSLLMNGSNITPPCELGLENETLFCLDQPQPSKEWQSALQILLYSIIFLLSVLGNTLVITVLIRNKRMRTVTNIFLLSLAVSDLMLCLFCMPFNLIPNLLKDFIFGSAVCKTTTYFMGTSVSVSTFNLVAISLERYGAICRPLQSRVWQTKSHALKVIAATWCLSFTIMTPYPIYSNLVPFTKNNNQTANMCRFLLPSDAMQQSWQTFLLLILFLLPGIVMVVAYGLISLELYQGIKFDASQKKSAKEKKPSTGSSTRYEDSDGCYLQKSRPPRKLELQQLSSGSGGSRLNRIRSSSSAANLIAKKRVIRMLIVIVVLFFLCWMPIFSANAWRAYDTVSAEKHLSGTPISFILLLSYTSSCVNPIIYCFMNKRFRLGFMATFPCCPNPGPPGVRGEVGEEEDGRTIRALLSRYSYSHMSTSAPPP
Experimental: The affinity of the compounds of formula I for peripheral CCK receptors was measured in vitro on rat pancreas homogenate. The inhibition of the binding of the physiologically relevant octopeptide CCK-8 to peripheral CCK receptors by the test substances was determined.
The receptor binding studies were carried out by a modification of the method of van Dijk et al. (J. Neuroscience 4 (1984), 1021-1033), using soya bean trypsin inhibitor (=SBTI) as protease inhibitor. ^3 [H]-CCK-8, code TRK 775, from Amersham Int., having a specific activity of 60-90 Ci/mmol, was used as tritium-labelled CCK-8.
Whole pancreas glands from male Wistar rats with a body weight of 150-300 g, which had been sacrificed by decapitation, were freed of fatty tissue and homogenized for 15 seconds in a 50-fold volume of an ice-cold test buffer solution (10 mmol 2-[4-(2-hydroxyethyl)-piperazin-1-yl]-ethanesulfonic acid (=HEPES), 130 mmol sodium chloride, 5 mmol magnesium chloride, 0.02% bacitracins, 0.01% SBTI, pH 7.4) with a Kinematica Polytron type homogenizer. The homogenates were then centrifuged at 48,000 g for 10 minutes. This washing method was repeated. After the last centrifugation, the residue which was obtained each time in the form of a pellet was suspended in a 550-fold volume of the test buffer solution and immediately used for the measurement.
For the binding test, 500 μl of the tissue homogenate were incubated with 50 μl of test buffer solution or 50 μl of a solution of the compound to be investigated and with 50 μl of a ^3 [H]-CCK-8 solution (final concentration 0.3 nM). The non-specific binding was assumed to be 0.1 μmol CCK-8. The incubation lasted 90 minutes at 25° C. All the compounds were measured 3 times at each of several concentrations.
Aqueous solutions were employed as test substance solutions and were prepared by appropriate dilution of 60×10^-4 molar aqueous stock solutions. Test substances which are sparingly soluble in water were first dissolved in 96% ethanol, and this solution was diluted with sufficient water for the ethanol concentration not to exceed 1.6% by volume in the solution to be tested.
Bound and free ^3 [H]-CCK-8 were separated by filtration through glass fiber filters. The filters were washed twice with 3 ml of HEPES solution each time and then placed in the scintillation solution (SAVE scintillation solution from Packard) in the dark overnight and counted in a Packard TriCarb 1500™liquid scintillation counter. The IC50 of the respective test substance was determined to be that concentration which caused a 50% inhibition of the specific binding of tritiated CCK-8 to the receptors. From this, the corresponding pKi value was calculated using the Cheng-Prusoff equation. […]

[2] = test system: CCK-induced disturbance of stomach emptying; experiment: effect of test substances on CCK-induced disturbances of emptying of the stomach (charcoal transport into duodenum); type: in vivo, mouse (female NMRI); details: CCK-8 s.c. 60 min later
Experimental: Doses of CCK lead to substantial blockade of the transpyloric transport of chyme from the stomach into the duodenum. The ability of the test substances to eliminate this blocking effect of CCK was investigated.
Female NMRI mice having body weights of 20-25 g were used in groups of ten animals each. […] A control group received only the Tylose® solution or the solution containing the solubilizer polyethylene glycol in each case. 60 minutes later the animals were given a subcutaneous injection of 80 Ig/kg CCK-8. After a further 5 minutes the animals were each orally administered 0.3 ml of a charcoal suspension (5% charcoal in 2% strength Tylose solution). The mice were sacrificed 5 minutes later and subsequently dissected. They were examined to find whether charcoal suspension had advanced into the duodenum.
The percentage of animals in which the CCK effect was eliminated and charcoal suspension was found in the duodenum after administration of the test substances was determined.

[3] = test system: CCK-induced gallbladder emptying; experiment: inhibitory effect of test substances on CCK-induced gallbladder emptying (gallbladder weight); type: in vivo, mouse (female NMRI); details: CCK-8 i.p. 60 min later
Experimental: CCK causes a contraction of the muscles of the gallbladder and thus an emptying of the gallbladder. […] Intraperitoneal doses of 0.1 μg/kg CCK-8 may result in the weight of the gallbladders decreasing to about 1/10 of the original weight.
Female NMRI mice having a body weights of 20-25 g were used in groups of 10 animals each. After withdrawal of feed for 24 hours (drinking water ad libitum) the animals received an oral dose of the test substance suspended in a volume of 10 ml/kg of body weight of a 1% strength Tylose® solution (=methylcellulose) or in a volume of 10 ml/kg of body weight of a solubilizer solution which contained 5% glycerol, 87% polyethylene glycol 400, and 8% water. Two control groups each received only the Tylose® solution or the solution containing the solubilizer polyethylene glycol. One of the control groups and all the animals treated with test substance received 0.1 Ig/kg CCK-8 injected i.p. 60 minutes later.
The mice were sacrificed 5 minutes after the CCK-8 administration, and the gallbladders were excised and weighed.
The following Table C lists the percentage inhibition of the CCK-8 effect on gallbladder weights caused by the test substances.

[4] = determination of the minimum toxic dose; type: in vivo, mouse (male); details: mouse, oral; lowest dose causing death or serious symptoms of toxicity; max 300 mg/kg; 24 h
Experimental: Male mice weighing 20-25 g were given maximum oral doses of 300 mg/kg of the test substance. The animals were observed carefully for three hours for symptoms of toxicity. In addition, all symptoms and deaths were recorded for a period of 24 hours after administration. Concomitant symptoms were likewise observed and recorded. If death or serious symptoms of toxicity were observed, further mice were given increasingly lower doses. The lowest dose which caused death or serious symptoms of toxicity is indicated in the following Table A as the minimum toxic dose.

Structure (SMILES) | Ki [1] [nM] | % of Animals in which the CCK Effect was Eliminated ([2]; dose 10 μmol/kg mouse oral) [%] | % Inhibition of CCK-induced Gallbladder Emptying ([3]; dose 46 μmol/kg mouse oral) [%] | % of Animals in which the CCK Effect was Eliminated ([2]; dose 1.0 μmol/kg mouse oral) [%] | Minimum toxic dose [4] [mg/kg] | % Inhibition of CCK-induced Gallbladder Emptying ([3]; dose 10 μmol/kg mouse oral) [%] | % of Animals in which the CCK Effect was Eliminated ([2]; dose 0.681 μmol/kg mouse oral) [%] | % of Animals in which the CCK Effect was Eliminated ([2]; dose 0.215 μmol/kg mouse oral) [%] | % Inhibition of CCK-induced Gallbladder Emptying ([3]; dose 4.6 μmol/kg mouse oral) [%] | % Inhibition of CCK-induced Gallbladder Emptying ([3]; dose 100 μmol/kg mouse oral) [%] | % Inhibition of CCK-induced Gallbladder Emptying ([3]; dose 1 μmol/kg mouse oral) [%]
COc1ccc2c(c1)N(C)C(=O)C(NC(=O)c1cc3cccc4c3n1CCC4)N=C2c1ccccc1 (single isomer, unassigned; (+)) [Example 2b, (+)-3-[(4H-pyrrolo[3,2,1-ij]-5,6-dihydroquinoline-2-carbonyl)-amino]-8-methoxy-1-methyl-2-oxo-5-phenyl-1H-2,3-dihydro-1,4-benzodiazepine] | 19.5 | 70 | 8.3 | – | – | – | – | – | – | – | –
CN1C(=O)C(NC(=O)c2cc3cccc4c3n2CCC4)N=C(c2c(F)cccc2F)c2ccccc21 (stereo not drawn) [Example 20] | 0.851 | – | – | 50 | > 300 | 25 | – | – | – | – | –
CN1C(=O)C(NC(=O)c2cc3cccc4c3n2CCC4)N=C(c2ccccc2)c2ccccc21 (stereo not drawn) [Example 6, 3-[(4H-Pyrrolo[3,2,1-ij]-5,6-dihydroquinoline-2-carbonyl)-amino]-1-methyl-2-oxo-5-phenyl-1H-2,3-dihydro-1,4-benzodiazepine] | 3.24 | – | – | – | – | 73 | 40 | – | – | – | –
COc1ccc2c(c1)N(C)C(=O)C(NC(=O)c1cc3cccc4c3n1CCC4)N=C2c1ccccc1F (stereo not drawn) [Example 9] | 0.794 | – | – | – | > 300 | – | – | 50 | < 25 | 99 | –
COc1ccc2c(c1)N(C)C(=O)C(NC(=O)c1cc3cccc4c3n1CCC4)N=C2c1ccccc1 (stereo not drawn) [Example 1, 3-[(4H-Pyrrolo[3,2,1-ij]-5,6-dihydroquinoline-2-carbonyl)-amino]-8-methoxy-1-methyl-2-oxo-5-phenyl-1H-2,3-dihydro-1,4-benzodiazepine] | 1.35 | – | – | – | > 300 | 66 | – | 50 | – | – | < 25
CN1C(=O)C(NC(=O)c2cc3cccc4c3n2CC4)N=C(c2ccccc2)c2ccccc21 (stereo not drawn) [Example 33] | 3.72 | – | – | 50 | > 300 | 19 | – | – | – | – | –
